Structures can show the parent of a compound that is named as a salt.
Assays:
male SD rats = test: Subcutaneous infiltration anesthesia in rats (acupuncture stimulation of back skin); assay type: in vivo, rat; settings: for Duration of local anesthesia: 0.4 mL subcutaneous
Experimental: The compounds of the examples were dissolved in water for injection to a concentration of 0.2-0.5 g/100 mL (0.2-0.5%), or mixed with commercially-available clinically-common local anesthetic drugs to prepare a mixed solution with a specific proportion, and the 0.75% levobupivacaine was used as the positive control compound. The experimental method was as follows: male SD rats weighing 180-300 g were shaved off back hair 1 day before the experiment, and a circular skin area with a diameter of 4 cm was exposed. 0.4 mL of the drug solution was subcutaneously injected to the exposed circular center on the back using a 1 mL syringe to form a skin mound. After 1 minute, the first measurement was performed. Each of 8 random parts around the center of the injection site was stimulated once by acupuncture of 15 g force using a 26G needle (the stimulation site was no more than 1 cm away from the injection center). […] If there was no such behavior, it was considered that the local anesthetic effect existed. […] Except for the first measurement, the measurement was performed every 2 hours within 12 hours after the administration, and every 6 hours after 12 hours after the administration. 8 rats were used for each drug for the experiment.

rats = test: Mortality rate after injection of drugs through tail vein; assay type: in vivo, rat; settings: 0.4 mL through tail vein, 10 rats
Experimental: 0.2% aqueous solution of the compounds of the present invention and 0.75% levobupivacaine solution were injected into the rats through tail vein in 0.4 mL, and the mortality rate was observed. Each drug was injected into 10 rats (half male and half female, weighing 290-310).

[1] = test system: left sciatic nerve of rats; test: Sciatic nerve blocking experiment in rats (Von Frey filaments 60 g); assay type: in vivo, rat
Experimental: The compounds of the examples were dissolved in water for injection to a concentration of 0.5-2.0 g/100 mL (0.5%-2%), or mixed with commercially-available clinically-common local anesthetic drugs to prepare a mixed solution with a specific proportion, and the 0.75% levobupivacaine was used as the positive control compound. The experimental method was as follows: male SD rats weighing 180-300 g were anesthetized with isoflurane, 0.2 mL of the drug-containing solution was injected near the left sciatic nerve of rats, and 8 rats were used for each drug for the experiment. After the rats woke up, the first measurement was performed, and then the measurement was performed every 2 hours. If there was still an anesthetic effect after six measurements, the measurement was performed every 6 hours until the anesthetic effect disappeared. The method for judging the existence of anesthetic effect was as follows. The skin of the sole and lateral surface of the hindlimb of the rat on the side injected with the drug was stimulated using Von Frey filaments (60 g). […] If there was no such behavior, it was considered that the local anesthetic effect existed.

[2] = background, literature; cited from earlier work
[3] = 0.15 + 0.35% bupivacaine hydrochloride
[4] = 0.5%, 0.2 mL near left sciatic nerve
[5] = 0.5 + 0.35% bupivacaine hydrochloride, 0.2 mL near sciatic nerve
[6] = 1.0%, 0.2 mL near left sciatic nerve
[7] = 2.0%, 0.2 mL near left sciatic nerve
[8] = 0.15 + 0.35% lidocaine hydrochloride
[9] = 0.5 + 0.35% lidocaine hydrochloride, 0.2 mL near sciatic nerve
[10] = 0.15 + 0.15% tetracaine hydrochloride
[11] = 0.5 + 0.15% tetracaine hydrochloride, 0.2 mL near sciatic nerve
[12] = 0.75%, 0.2 mL near left sciatic nerve

| Compound | Duration of local anesthesia (male SD rats; 0.2%, rat back) [h] | Duration of local anesthesia (male SD rats; 0.5%, rat back) [h] | Mortality rate % (rats; 0.2% aqueous solution) [%] | Duration of local anesthesia [1, 4] [h] | Duration of local anesthesia [1, 6] [h] | Duration of local anesthesia [1, 7] [h] | other results |
| --- | --- | --- | --- | --- | --- | --- | --- |
| CC[N+](CC)(CC)CC(=O)Nc1c(C)cc(O)cc1C [Compound 1] | 6 to 8 | 10 to 12 | 0 | 4 to 10 | 12 to 18 | 30 to 48 | Duration of local anesthesia (male SD rats; [3]): 24 to 30 h; Duration of local anesthesia [1, 5]: 18 to 30 h |
| CC[N+](CC)(CC)CC(=O)Nc1c(C)cc(OC(C)=O)cc1C [Compound 3] | 8 to 14 | 12 to 18 | 0 | 10 to 12 | 18 to 30 | 54 to 96 | Duration of local anesthesia (male SD rats; [3]): 18 to 24 h; Duration of local anesthesia [1, 5]: 24 to 36 h |
| CC[N+](CC)(CC)CC(=O)Nc1c(C)cc(N)cc1C [Compound 7] | 2 to 4 | 2 to 4 | – | <2 | <2 | 2 to 4 | Duration of local anesthesia (male SD rats; [3]): 4 to 6 h; Local anesthetic effect at the first measurement (male SD rats; injections of 0.2% and 0.5%, first measurement 1 minute after subcutaneous injection): not effective; Duration of local anesthesia [1, 5]: 2 to 4 h |
| CC[N+](CC)(CC)CC(=O)Nc1c(C)cc(OC(C)C)cc1C [Compound 15] | 24 to 30 | 42 to 54 | 0 | 12 to 18 | 24 to 36 | 120 to 144 | Duration of local anesthesia (male SD rats; [3]): 36 to 42 h; Duration of local anesthesia [1, 5]: 30 to 42 h |
| CCCCCCOc1cc(C)c(NC(=O)C[N+](CC)(CC)CC)c(C)c1 [Compound 17] | 36 to 48 | 54 to 60 | 0 | 24 to 42 | 42 to 66 | 96 to 144 | Duration of local anesthesia (male SD rats; [3]): 54 to 72 h; Duration of local anesthesia [1, 5]: 48 to 66 h |
| C=CC[N+]1(CC(=O)Nc2c(C)cc(OC(=O)CCC)cc2C)CCCCC1 [Compound 26] | 24 to 36 | 54 to 66 | 0 | 24 to 30 | 48 to 60 | 96 to 160 | Duration of local anesthesia (male SD rats; 0.15 + 0.35% levobupivacaine hydrochloride): 42 to 54 h; Duration of local anesthesia ([1]; 0.5 + 0.35% levobupivacaine hydrochloride, 0.2 mL near sciatic nerve): 36 to 48 h |
| CCCCCOC(=O)Oc1cc(C)c(NC(=O)C[N+](CC)(CC)CC)c(C)c1 [Compound 27] | 18 to 30 | 36 to 48 | 0 | 12 to 24 | 30 to 42 | 96 to 144 | Duration of local anesthesia (male SD rats; 0.15 + 0.5% lidocaine hydrochloride): 36 to 60 h; Duration of local anesthesia ([1]; 0.5 + 0.5% lidocaine hydrochloride, 0.2 mL near sciatic nerve): 36 to 66 h |
| CCCCCN(C)CC(=O)Oc1cc(C)c(NC(=O)C[N+](CC)(CC)CC)c(C)c1 [Compound 28] | 36 to 48 | 54 to 72 | 0 | 30 to 36 | 48 to 60 | 120 to 144 | Duration of local anesthesia (male SD rats; [8]): 54 to 66 h; Duration of local anesthesia [1, 9]: 48 to 54 h |
| CC[N+](CC)(CCO)CC(=O)Nc1c(C)cc(OC(=O)CCCc2ccc(Cl)cc2)cc1C [Compound 31] | 24 to 30 | 36 to 54 | 0 | 12 to 18 | 24 to 30 | 72 to 120 | Duration of local anesthesia (male SD rats; [8]): 36 to 42 h; Duration of local anesthesia [1, 9]: 24 to 42 h |
| CCCC(=O)Oc1cc(C)c(NC(=O)C2CCCC[N+]2(C)CCC)c(C)c1 (stereo not drawn) [Compound 33] | 36 to 54 | 60 to 72 | 0 | 24 to 30 | 48 to 66 | 120 to 144 | Duration of local anesthesia (male SD rats; [10]): 66 to 84 h; Duration of local anesthesia [1, 11]: 60 to 84 h |
| CCN(CCCCCOc1cc(C)c(NC(=O)C[N+](CC)(CC)CC)c(C)c1)CC(=O)Nc1c(C)cccc1C [Compound 45] | 24 to 36 | 42 to 60 | 0 | 18 to 24 | 30 to 42 | 96 to 120 | Duration of local anesthesia (male SD rats; [10]): 36 to 48 h; Duration of local anesthesia [1, 11]: 36 to 42 h |
| CC[N+](CC)(CC)CC(=O)Nc1c(C)cc(OC(=O)OCCCN2CCCCC2C(=O)Nc2c(C)cccc2C)cc1C (stereo not drawn) [Compound 48] | 36 to 54 | 60 to 78 | 0 | 24 to 36 | 54 to 72 | 120 to 160 | Duration of local anesthesia (male SD rats; [10]): 66 to 72 h; Duration of local anesthesia [1, 11]: 60 to 72 h |
| CC[N+](CC)(CC)CC(=O)Nc1c(C)cc(OC(=O)CCCCCCCN2CCCCC2C(=O)Nc2c(C)cccc2C)cc1C (stereo not drawn) [Compound 50] | 18 to 30 | 24 to 48 | 0 | 24 to 30 | 36 to 48 | 96 to 120 | Duration of local anesthesia (male SD rats; [10]): 42 to 54 h; Duration of local anesthesia [1, 11]: 36 to 60 h |
| CC[N+](CC)(CCO)CC(=O)Nc1c(C)cc(OCCCCN2CCCCC2C(=O)Nc2c(C)cccc2C)cc1C (stereo not drawn) [Compound 53] | 24 to 30 | 48 to 54 | 0 | 30 to 36 | 42 to 54 | 72 to 84 | Duration of local anesthesia (male SD rats; [10]): 36 to 48 h; Duration of local anesthesia [1, 11]: 42 to 66 h |
| CCCCN1CCCC[C@H]1C(=O)Nc1c(C)cccc1C [Levobupivacaine hydrochloride, reference compound] | – | – | – | – | – | – | Duration of local anesthesia (male SD rats; 0.75%, rat back, hydrochloride): 4 to 6 h; Duration of local anesthesia (male SD rats; 0.75%, rat back, listed as levobupivacaine, hydrochloride): 4 to 6 h; Mortality rate % (rats; 0.75% solution, hydrochloride): 70%; Mortality rate % (rats; 0.75% solution, listed as levobupivaca, hydrochloride): death of most animals; Mortality rate % (rats; 0.75% solution, listed as levobupivacaine, hydrochloride): 70%; Duration of local anesthesia [1, 12]: 2 to 6 h; Duration of motor block ([1]; 0.75%, compared with sensory block): basically the same as that of the sensory block; Block of motor function of the hindlimb ([1]; 0.75%, side injected with the drug): significantly blocked the motor function |
| CCCCN1CCCCC1C(=O)Nc1c(C)cccc1C (stereo not drawn) [bupivacaine, reference compound] | – | – | – | – | – | – | Duration of local anesthesia (male SD rats; 0.75%, rat back): 4 to 6 h; Duration of local anesthesia [1, 12]: 2 to 6 h |
| CCN(CC)CC(=O)Nc1c(C)cccc1C [lidocaine] | – | – | – | – | – | – | Duration of local anesthesia [2]: 2 h |

From patent US20230183169A1, “AROMATIC COMPOUND, PREPARATION METHOD THEREFOR AND USE THEREOF IN DRUG” (SICHUAN ACADEMY OF MEDICAL SCIENCES - SICHUAN PROVINCIAL …, priority 2020, published 2023)
